Experimental data published in paper PMC4409337, “Immucillins Impair Leishmania (L.) infantum chagasi and Leishmania (L.) amazonensis Multiplication In Vitro” (PLoS ONE, 2015).
Like-named read-outs stand apart in the source and are kept apart here.

Key:
[1] = test system: Nucleoside hydrolase NH36 of L. (L.) donovani; format: biochemical, Leishmania (L.) donovani; settings: substrate of NH36; for k cat /K m: catalytic efficiency; for K m / k cat: 25°C, 50 mM Hepes pH 7.4
Experimental: (§1) BL21DE3 E.coli were transformed with the synthetic plasmid pET 28b encoding the gene of NH36 of Leishmania (L.) donovani (EMBL, Genbank and DDJB data bases, access number AY007193) with a His6tag at the C-terminal. Expression was induced with 0.5 mM IPTG and overnight incubation at 20°C. Purification of NH36 was performed on a column of Ni-NTA Superflow resin (Qiagen, USA) eluted by a stepwise imidazole gradient and monitored by SDS-polyacrylamide gel electrophoresis and protein assay. The extinction coefficient of NH36 is 21.437 mM^-1 cm^-1 at 280 nm, as calculated with the ProtParam program from ExPASy, and was used to estimate protein concentration (http://ca.expasy.org/seqanalref/). The yield of NH36 after purification was 11.87 mg per Liter of bacterial growth culture. Non-specific His-proteins with weak interactions were eluted with 50–100 mM imidazole (S1 Fig). The purified NH36 started to elute with 150 mM imidazole. We used 250 mM of imidazol in elution buffer for purification of NH36.
Steady-state kinetic rates for NH36 were determined on the substrates inosine, guanosine, adenosine, uridine and cytidine. Hypoxanthine and adenine formation were coupled to xanthine oxidase (12.9 mM^-1 cm^-1 at 293 nm and 15.2 mM^-1 cm^-1 at 305 nm, respectively), and the others were followed by direct uv absorbance changes resulting from cleavage of the N-ribosidic bond. Reaction mixtures contained 50 mM Hepes (pH 7.4), 100 mM NaCl and 5 mM of DTT. One unit, and 0.1 unit of xanthine oxidase (XOD) were used as the coupling enzyme to the adenosine and inosine assays, respectively. Spectral changes for hydrolysis of guanosine, uridine and cytidine were 5.4 mM^-1 cm^-1 at 257 nm,1.8 mM^-1 cm^-1 at 280 nm and 1.8 mM^-1 cm^-1 at 288 nm, respectively. Variable concentrations of substrate and appropriate amounts of purified NH36 were added in all assays. The hydrolysis of nucleosides to bases and ribose was followed by continuous recording of optical absorbance after addition of the enzyme, in a CARY 300 UV-visible spectrophotometer. Control rates with no enzyme addition were subtracted from initial rates. Reactions with substrates were conducted at 25°C using 1 cm path length cuvettes containing 1 mL reaction volumes. Kinetic parameters of NH36 were obtained by fitting initial rates to the Michaelis−Menten equation using GraFit 5 (Erithacus Software).

[2] = test system: nucleoside hydrolase from Leishmania (L.) donovani; set-up: method as in PMID 11738828; settings: NH cloned in pET-22; cited from earlier work
NH of L. (L.) major = test system: NH of L. (L.) major; set-up: method as in PMID 10409664; settings: ref 13; cited from earlier work
[3] = target: T1, Nucleoside hydrolase NH36 (Leishmania donovani, UniProt Q8WQX2); experiment: Ki determination: inhibition of NH36 activity by immucillins; format: biochemical, Leishmania (L.) donovani; settings: 10 mM inosine as substrate, 0.5 nM NH36, pH 7.4, room temperature
T1 sequence (Q8WQX2 1-314): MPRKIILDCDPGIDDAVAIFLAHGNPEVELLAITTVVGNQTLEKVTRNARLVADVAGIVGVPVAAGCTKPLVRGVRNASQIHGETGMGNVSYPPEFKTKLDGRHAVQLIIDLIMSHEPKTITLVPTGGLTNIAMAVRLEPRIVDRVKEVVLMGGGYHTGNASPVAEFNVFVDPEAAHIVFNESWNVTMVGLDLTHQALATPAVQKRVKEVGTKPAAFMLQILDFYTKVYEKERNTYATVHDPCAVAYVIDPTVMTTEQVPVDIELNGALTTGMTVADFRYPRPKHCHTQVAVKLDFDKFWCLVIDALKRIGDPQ
Experimental: as §1
The reaction mixtures contained 10 mM inosine as substrate, 50 mM Hepes (pH 7.4), 100 mM KCl, 5 mM DTT and 1 unit XOD. The hydrolysis of inosine to hypoxanthine and ribose was followed by continuous reading of optical absorbance at 293 nm, using variable concentrations of inhibitors in a CARY 300UV-visible spectrophotometer. Controls without enzyme and without inhibitors were included in all inhibition assays. The inhibition constant for each immucillin was obtained, using GraFit 5 (Erithacus Software), by fitting initial rates with variable inhibitor concentrations to the equation (vi/v0 = [S] / Km + [S] + Km[I] / Ki), where v i is the initial rate in the presence of the inhibitor, v 0 is the initial rate in the absence of the inhibitor, K m is the Michaelis constant for inosine, [S] and [I] are inosine and inhibitor concentrations, respectively, and Ki is the inhibition constant.

[4] = test system: L. (L.) infantum chagasi promastigotes; experiment: In vitro growth of promastigotes in FBS supplemented Schneider's insect medium; format: cell-based, Leishmania (L.) infantum chagasi
From the text: The strain of Leishmania (L.) infantum chagasi MHOM/BR/1974/PP75 was obtained from the Leishmania Type Culture Collection (Fundacão Oswaldo Cruz, Rio de Janeiro, RJ, Brazil) and the strain of Leishmania (L.) amazonensis (MHOM/BR/1975/Josefa) was kindly given by Professor Rosâ[…] from Universidade Federal do Rio de Janeiro. Promastigotes were maintained by weekly transfers in screw-capped glass tubes containing Schneider's insect medium (Sigma Aldrich, MO, USA), pH 7.0, supplemented with 10% Fetal Bovine Serum (FBS) at 26°C. […] Log phase promastigotes of L. (L.) infantum chagasi and L. […] Promastigotes were recorded in a Neubauer chamber after 24, 48, 72 and 96 hours of incubation at 26°C. […] The concentration of adenosine in Schneider s insect serum supplemented medium was assessed by HPLC using a C-18 reverse-phase column as described.

[5] = test system: L. (L.) amazonensis promastigotes; experiment: as above; format: cell-based, Leishmania (L.) amazonensis; settings: Leishmania amazonensis
From the text: The strain of Leishmania (L.) infantum chagasi MHOM/BR/1974/PP75 was obtained from the Leishmania Type Culture Collection (Fundacão Oswaldo Cruz, Rio de Janeiro, RJ, Brazil) and the strain of Leishmania (L.) amazonensis (MHOM/BR/1975/Josefa) was kindly given by Professor Rosâ[…] from Universidade Federal do Rio de Janeiro. Promastigotes were maintained by weekly transfers in screw-capped glass tubes containing Schneider's insect medium (Sigma Aldrich, MO, USA), pH 7.0, supplemented with 10% Fetal Bovine Serum (FBS) at 26°C. Stock solutions (20 mM) of immucillins IA […] prepared using Milli-Q purified water. Log phase promastigotes of L. (L.) infantum chagasi and L. […] Promastigotes were recorded in a Neubauer chamber after 24, 48, 72 and 96 hours of incubation at 26°C. […] We also assayed the possibility of reversing the inhibitory effect of IA in RPMI medium by the addition of adenosine to the culture medium. The concentration of adenosine in Schneider s insect serum supplemented medium was assessed by HPLC using a C-18 reverse-phase column as described.

[6] = test system: L. (L.) infantum chagasi promastigotes; experiment: Transmission electron microscopy of treated promastigotes; format: cell-based, Leishmania (L.) infantum chagasi; settings: 10 μM, 72 h
From the text: The cells were washed with Milli Q water, dehydrated in increasing concentration of acetone and embedded in Epon (1: 1) (PolyBed 812). The ultrathin sections were obtained, contrasted with 5% uranyl acetate and lead citrate and observed under a Joel 1200 electron microscope.

[7] = Macrophage viability and cytotoxicity (Trypan Blue); settings: female, BALB/c, mouse, peritoneal macrophages
Experimental: (§2) Alternatively, the immucillins were added at 0, 24 and 48 h and viability assessed after 72h. […] The amastigote growth was assessed 24 h after the last drug addition, on 200 cells in Giemsa stained coverslips and expressed as phagocytic index = percent of infected macrophages x average number of intracellular amastigotes. […] All experiments with mice were reviewed and approved by the Animal Care and Use Committee of the Instituto de Biofísica Carlos Chagas Fo.-UFRJ (CAUAP-CONCEA, Brazil, IMPPG-016) and were performed according to the guidelines of the National Institutes of Health, USA. We made all efforts in order to minimize animal suffering.

[8] = test system: intracellular amastigotes of L. (L.) infantum chagasi; experiment: Replication of intracellular amastigotes in infected peritoneal macrophages (phagocytic index); format: cell-based, Leishmania (L.) infantum chagasi; settings: for EC50: drugs (0.5–10 μM) added at 0 h, incubation 24 h, linear interpolation, read-out: EC50 (CI 95%)
Experimental: as §2, with “Alternatively, the immucillins were added at 0, 24 and 48 h and viability assessed after 72h.” left out

[9] = test system: strains of L. (L.) infantum chagasi; set-up: method as in PMID 23747751; settings: cited from earlier work
[10] = test system: intracellular amastigotes of L. (L.) infantum chagasi; settings: cited from earlier work
[11] = test system: amastigotes of L. (L.) amazonensis; set-up: method as in PMID 18660990; settings: ref 43; read-out: IC50 against amastigotes; cited from earlier work
[12] = single 10 μM dose at 0 h, compared to untreated controls

## O=c1[nH]cnc2c1ncn2[C@@H]1O[C@H](CO)[C@@H](O)[C@H]1O [Inosine]
[1]
  k cat /K m: 31800 M⁻¹ s⁻¹
  K m: 340 ± 30 µM
  k cat: 10.8 ± 0.3 s ^-1
[2]
  k cat: 7.6 s⁻¹
NH of L. (L.) major
  k cat: 119 s⁻¹

## O=c1[nH]cnc2c(CNC(CO)CO)c[nH]c12 [SMIH]
[3]
  Ki: > 5 µM
[4]; Leishmania infantum, drugs added at 0, 24 and 48 h, after 48h, read-out: IC50 on promastigote growth, daily addition
  IC50: 1 nM
[4]; Leishmania infantum, drugs added at 0, 24 and 48 h, at 72 and 96 h, read-out: IC50 on promastigote growth, daily addition
  IC50: < 0.01 nM
[4]; Leishmania infantum, single addition at 0 h, evaluated after 48 hours, 26°C, read-out: IC50 (CI 95%) on L. (L.) infantum chagasi promastigotes in vitro growth
  IC50: 8 nM
[4]; Leishmania infantum, 50 nM, after 96 h of culture, read-out: percent inhibition on L. (L.) infantum chagasi promastigote growth
  inhibition at 0.05 µM: 99%
[4]; daily addition (0, 24, 48 h) vs single addition (Table 2), 48 h
  reduction of the IC50 by daily addition compared to single addition: 88%
[5]; 50 nM, after 96 h of culture, read-out: percent growth inhibition on L. (L.) amazonensis
  inhibition at 0.05 µM: 61%
[5]; 500 μM, after 96 h of culture, read-out: percent inhibition on L. (L.) amazonensis replication
  inhibition at 500 µM: 71%
[5]; single addition at 0 h, evaluated after 48 hours, 26°C, read-out: IC50 (CI 95%) on L. (L.) amazonensis promastigotes in vitro growth
  IC50: 0.007 µM
[6]
  effect on cellular ultrastructure of promastigotes: complete alteration of their cellular morphology with intense cytoplasm vacuolization, enlarged vesicles and alterations in the kinetoplasts
[7]
  CC50 at 48 h: 800 µM
[8]; 10 μM added daily at 0, 24 and 48 h
  reduction in the number of intracellular amastigotes: 95%
[8]; Leishmania infantum, Peritoneal macrophage
  EC50: 7.1 µM
[8]; low micromolar concentrations, single to daily protocol
  decrease of intracellular amastigote parasite load: 74–95%
[8]; [12]
  reduction in the number of intracellular amastigotes: 70%

## O=c1ccn([C@@H]2O[C@H](CO)[C@@H](O)[C@H]2O)c(=O)[nH]1 [Uridine]
[1]
  k cat /K m: 16000 M⁻¹ s⁻¹
  K m: 2,100 ± 561 μM
  k cat: 34.3 ± 4.2 s ^-1
[2]
  k cat: 9.5 s⁻¹
NH of L. (L.) major
  k cat: 32 s⁻¹

## Glucantime
[8]
  EC50: 7.1 µM
[8]; [12]
  reduction in the number of intracellular amastigotes: 70%
[9]; Leishmania strains isolated from dogs
  IC50: 20000 to 32300 µM
[9]; human strains of L. (L.) infantum chagasi
  IC50: 430 to 5760 µM
[10]; ref 43, read-out: IC50 against replication of amastigotes
  IC50: 348 µM
[10]; ref 44, read-out: IC50 against intracellular amastigotes
  IC50: 1420 µM
[10]; ref 45, read-out: IC50 against intracellular amastigotes
  IC50: 31.1 µM
[11]
  IC50: 62.6 µM
